Laboratory results taken from PubChem BioAssay (NCI).
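Protocol summary: plate cells (96-well), add compound at 5 concentrations, incubate 48 h, interpolate endpoints linearly. TGI is the concentration that stops growth completely.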

Tests used:
Test in all cases: NCI-60 cell line screen, 48 h
[1] = test system: HOP-92 NSCLC
[2] = test system: TK-10 renal
[3] = test system: RXF 393 renal
[4] = test system: EKVX NSCLC
[5] = test system: SW-620 colon
[6] = test system: SK-MEL-28 melanoma
[7] = test system: CAKI-1 renal
[8] = test system: HL-60(TB) leukemia
[9] = test system: NCI-H460 lung
[10] = test system: IGROV1 ovarian
[11] = test system: SR leukemia
[12] = test system: SK-OV-3 ovarian
[13] = test system: UO-31 renal
[14] = test system: OVCAR-8 ovarian
[15] = test system: HOP-62 NSCLC
[16] = test system: OVCAR-3 ovarian
[17] = test system: SK-MEL-2 melanoma
[18] = test system: OVCAR-4 ovarian
[19] = test system: SF-268 CNS
[20] = test system: SF-539 CNS
[21] = test system: M14 melanoma
[22] = test system: SK-MEL-5 melanoma
[23] = test system: ACHN renal
[24] = test system: OVCAR-5 ovarian
[25] = test system: MCF7 breast
[26] = test system: K-562 leukemia
[27] = test system: A549 NSCLC
[28] = test system: NCI-H226 lung
[29] = test system: LOX IMVI melanoma
[30] = test system: HT29 colon
[31] = test system: SF-295 CNS
[32] = test system: CCRF-CEM leukemia
[33] = test system: BT-549 breast
[34] = test system: RPMI-8226 leukemia
[35] = test system: 786-0 renal
[36] = test system: U251 CNS
[37] = test system: A498 renal
[38] = test system: NCI-H23 lung
[39] = test system: KM12 colon
[40] = test system: MDA-MB-231 breast
[41] = test system: NCI-H522 lung
[42] = test system: HS 578T breast
[43] = test system: SN12C renal
[44] = test system: UACC-62 melanoma
[45] = test system: MOLT-4 leukemia
[46] = test system: COLO 205 colon
[47] = test system: SNB-75 CNS
[48] = test system: UACC-257 melanoma
[49] = test system: MALME-3M melanoma
[50] = test system: PC-3 prostate
[51] = test system: HCT-15 colon
[52] = test system: DU-145 prostate
[53] = test system: MDA-MB-435
[54] = test system: NCI/ADR-RES ovarian
[55] = test system: SNB-19 CNS
[56] = test system: HCT-116 colon
[57] = test system: T-47D breast
[58] = test system: MDA-N
[59] = test system: HCC-2998 colon

In the case of `CC(C)CNC(=O)O`, the TGI [1] is reported as greater than 100 µM, the TGI [2] is reported as greater than 100 µM and the TGI [3] is reported as greater than 100 µM. The TGI [4] was greater than 100 µM, the TGI [5] was greater than 100 µM and the TGI [6] was greater than 100 µM. For the same compound, the TGI [7] was greater than 100 µM, the TGI [8] was greater than 100 µM and the TGI [9] was greater than 100 µM. For the same compound, the TGI [10] was greater than 100 µM, the TGI [11] was greater than 100 µM and the TGI [12] was greater than 100 µM. For the same compound, the TGI [13] was greater than 100 µM, the TGI [14] was greater than 100 µM and the TGI [15] was greater than 100 µM. For the same compound, the TGI [16] was greater than 100 µM, the TGI [17] was greater than 100 µM and the TGI [18] was greater than 100 µM. The TGI [19] was greater than 100 µM, the TGI [20] was greater than 100 µM and the TGI [21] was greater than 100 µM. For the same compound, the TGI [22] was greater than 100 µM, the TGI [23] was greater than 100 µM and the TGI [24] was greater than 100 µM. The TGI [25] was greater than 100 µM, the TGI [26] was greater than 100 µM and the TGI [27] was greater than 100 µM. It also gave a TGI [28] greater than 100 µM, a TGI [29] greater than 100 µM and a TGI [30] greater than 100 µM. It also gave a TGI [31] greater than 100 µM, a TGI [32] greater than 100 µM and a TGI [33] greater than 100 µM. For the same compound, the TGI [34] was greater than 100 µM, the TGI [35] was greater than 100 µM and the TGI [36] was greater than 100 µM. The TGI [37] was greater than 100 µM, the TGI [38] was greater than 100 µM and the TGI [39] was greater than 100 µM. The TGI [40] was greater than 100 µM, the TGI [41] was greater than 100 µM and the TGI [42] was greater than 100 µM. The TGI [43] was greater than 100 µM, the TGI [44] was greater than 100 µM and the TGI [45] was greater than 100 µM. The TGI [46] was greater than 100 µM, the TGI [47] was greater than 100 µM and the TGI [48] was greater than 100 µM. It also gave a TGI [49] greater than 100 µM, a TGI [50] greater than 100 µM and a TGI [51] greater than 100 µM. The TGI [52] was greater than 100 µM, the TGI [53] was greater than 100 µM and the TGI [54] was greater than 100 µM. For the same compound, the TGI [55] was greater than 100 µM, the TGI [56] was greater than 100 µM and the TGI [57] was greater than 100 µM. The TGI [58] was greater than 100 µM.

`Cc1ccc2nc(Cl)c(/C=N/N3C(=O)/C(=C/c4ccccc4S)N=C3c3ccccc3)cc2c1` showed a TGI [1] greater than 100 µM, a TGI [59] greater than 100 µM and a TGI [2] greater than 100 µM. It also gave a TGI [4] greater than 100 µM, a TGI [5] greater than 100 µM and a TGI [6] greater than 100 µM. It also gave a TGI [7] greater than 100 µM, a TGI [8] of 61.6 µM and a TGI [9] greater than 100 µM. For the same compound, the TGI [10] was greater than 100 µM, the TGI [11] was 60.8 µM and the TGI [12] was greater than 100 µM. For the same compound, the TGI [13] was greater than 100 µM, the TGI [14] was greater than 100 µM and the TGI [15] was greater than 100 µM. It also gave a TGI [16] of 28.2 µM, a TGI [17] of 52.2 µM and a TGI [18] greater than 100 µM. The TGI [19] was greater than 100 µM, the TGI [20] was 43 µM and the TGI [21] was 79.4 µM. The TGI [22] was greater than 100 µM, the TGI [23] was greater than 100 µM and the TGI [24] was greater than 100 µM. The TGI [25] was greater than 100 µM, the TGI [26] was 49 µM and the TGI [27] was greater than 100 µM. It also gave a TGI [29] greater than 100 µM, a TGI [30] greater than 100 µM and a TGI [31] of 84 µM. It also gave a TGI [32] greater than 100 µM, a TGI [33] greater than 100 µM and a TGI [34] of 68.1 µM. The TGI [35] was greater than 100 µM, the TGI [36] was greater than 100 µM and the TGI [37] was greater than 100 µM. It also gave a TGI [39] greater than 100 µM, a TGI [40] greater than 100 µM and a TGI [42] of 58 µM. It also gave a TGI [43] greater than 100 µM, a TGI [44] greater than 100 µM and a TGI [45] of 15.1 µM. The TGI [46] was greater than 100 µM, the TGI [47] was 86.5 µM and the TGI [48] was greater than 100 µM. The TGI [50] was greater than 100 µM, the TGI [51] was greater than 100 µM and the TGI [52] was greater than 100 µM. It also gave a TGI [53] of 31.8 µM, a TGI [54] of 76.5 µM and a TGI [55] greater than 100 µM. The TGI [56] was greater than 100 µM, the TGI [57] was greater than 100 µM and the TGI [58] was 40.5 µM.
